In brackets after ≈: the same amount, converted by molar mass.
Assays:
[1] = Inhibition of Streptococcus pneumoniae FabK expressed in Escherichia coli BL21 (DE3) using crotonyl-CoA as substrate incubated for 10 mins in presence of NADH by microplate reader assay
[2] = Inhibition of Clostridioides difficile FabK expressed in Escherichia coli BL21 (DE3) using crotonyl-CoA as substrate incubated for 10 mins in presence of NADH by microplate reader assay
[3] = system: Clostridioides difficile; assay: Antibacterial activity against Clostridioides difficile R20291 assessed as inhibition of bacterial growth incubated for 24 hrs by broth microdilution method; type: functional
[4] = system: HCT-116; assay: cells; type: functional, cell-based; conditions: Homo sapiens, HCT-116, 48 h
Description: Cytotoxicity against human HCT-116 cells assessed as reduction in cell viability incubated for 48 hrs by resazurin dye based assay

[5] = Solubility of compound by turbidimetric assay; type: physicochemical

Structure (SMILES)	IC50 [1] [nM]	IC50 [2] [nM]	MIC [3] [µg/mL]	IC50 [4] [µg/mL]	solubility kinetic [5] [µM]
O=C(NCc1nc(-c2ccccc2)c[nH]1)Nc1ncc(Sc2ccccc2)s1	37				
O=C(NCc1ncc(-c2ccccc2)[nH]1)Nc1ncc(Sc2ccccn2)s1		> 10000	> 50		
O=C(NCc1ncc(-c2ccc(Br)cc2)[nH]1)Nc1ncc(Sc2ccccn2)s1		1230	1.56 (≈ 3.2 µM)	> 100	80.1 (≈ 39 µg/mL)
O=C(NCc1nc(-c2ccc(Br)cc2)c[nH]1)Nc1nc2ccc(Cl)cc2s1		110	6.25 (≈ 13.5 µM)	> 100	76.9 (≈ 35.6 µg/mL)
O=C(NCc1nc(-c2ccc(Br)cc2)c[nH]1)Nc1ncc(Sc2ccc(Cl)cn2)s1		850	3.12 (≈ 5.98 µM)		59 (≈ 30.8 µg/mL)
O=C(NCc1nc2ccccc2[nH]1)Nc1ncc(Sc2ccccn2)s1		> 10000	> 50		
CCOc1ccc2nc(NC(=O)NCc3nc(-c4ccc(Br)cc4)c[nH]3)sc2c1		170	12.5 (≈ 26.5 µM)		79 (≈ 37.3 µg/mL)
O=C(NCc1nc(-c2ccc(Br)cc2)c[nH]1)Nc1ncc(Sc2ccc3ccccc3n2)s1		750	> 50		74.7 (≈ 40.1 µg/mL)
O=C(NCc1nc(-c2ccc(Br)cc2)c[nH]1)Nc1ncc(Sc2nc3ccccc3s2)s1		420	> 50		50 (≈ 27.2 µg/mL)
O=C(NCc1nc(-c2ccc(Br)cc2)c[nH]1)Nc1ncc(Sc2ccc(C(F)(F)F)cn2)s1		770	3.12 (≈ 5.62 µM)	> 100	18.3 (≈ 10.2 µg/mL)
CS(=O)(=O)c1ccc2nc(NC(=O)NCc3nc(-c4ccc(Br)cc4)c[nH]3)sc2c1		450	> 100		44.5 (≈ 22.5 µg/mL)
O=C(NCc1nc(-c2ccc(Br)cc2)c[nH]1)Nc1nc2c(F)cc(F)cc2s1		4530	12.5 (≈ 26.9 µM)		125 (≈ 58 µg/mL)
O=C(NCc1nc(-c2ccc(Br)cc2)c[nH]1)Nc1ncc(Sc2ncccc2C(F)(F)F)s1		240	1.56 (≈ 2.81 µM)	> 100	52 (≈ 28.9 µg/mL)
O=C(NCc1nc2ccccc2c(=O)[nH]1)Nc1ncc(Sc2ccccn2)s1		> 10000	> 50		
O=C(NCc1nc(-c2ccc(Br)cc2)c[nH]1)Nc1nc2c(C(F)(F)F)cccc2s1		> 10000	1.56 (≈ 3.14 µM)	> 100	
O=C(NCc1nc(-c2ccc(Br)cc2)c[nH]1)Nc1ncc(Sc2ncccn2)s1		1020	1.56 (≈ 3.19 µM)	> 100	83.9 (≈ 41 µg/mL)
O=C(NCc1nc(-c2ccc(Br)cc2)c[nH]1)Nc1nc2ccc(Br)cc2s1		340	50 (≈ 98.6 µM)		31.3 (≈ 15.9 µg/mL)
O=C(NCc1nc(-c2ccc(Br)cc2)c[nH]1)Nc1nc2ccccc2s1		1880	> 50		64.8 (≈ 27.8 µg/mL)
O=C(NCc1nc(-c2ccc(Br)cc2)c[nH]1)Nc1nc2cc(C(F)(F)F)ccc2s1		> 10000	3.12 (≈ 6.29 µM)		
O=C(NCc1nc(-c2ccc(Br)cc2)c[nH]1)Nc1ncc(Sc2ccc(Br)cc2)s1		530	25 (≈ 44.2 µM)		63.6 (≈ 36 µg/mL)
O=C(NCc1nc(-c2ccc(Br)cc2)c[nH]1)Nc1ncc(Sc2ccccc2)s1		900	1.56 (≈ 3.21 µM)		
O=C(NCc1nc(-c2ccc(Br)cc2)c[nH]1)Nc1nc2cccc(C(F)(F)F)c2s1		2810			
COC(=O)c1ccc2nc(NC(=O)CSc3nc4ccccc4[nH]3)sc2c1	1800	4200			
O=C(NCc1nc(-c2ccc(Br)cc2)c[nH]1)Nc1nc2ccc(F)cc2s1		230			61.3 (≈ 27.4 µg/mL)
O=C(NCc1nc(-c2ccc(Br)cc2)c[nH]1)Nc1nc2ccc(OC(F)(F)F)cc2s1		90	12.5 (≈ 24.4 µM)		

— ChEMBL document CHEMBL5338799, “Synthesis and evaluation of phenylimidazole FabK inhibitors as new Anti-C. Difficile agents” (Bioorg Med Chem, 2023)
